Source: paper PMC4940736 (Scientific Reports, 2016)

What was measured:
[1] = biological target: MARV NP (amino acids 19–370) (Lake Victoria marburgvirus, UniProt P27588); type: binding, Marburg virus
[2] = biological target: EBOV NP (amino acids 36–351) (Zaire ebolavirus, UniProt P18272); type: binding, Ebola virus
Chain of EBOV NP (amino acids 36–351) (P18272 36-351 limits assumed): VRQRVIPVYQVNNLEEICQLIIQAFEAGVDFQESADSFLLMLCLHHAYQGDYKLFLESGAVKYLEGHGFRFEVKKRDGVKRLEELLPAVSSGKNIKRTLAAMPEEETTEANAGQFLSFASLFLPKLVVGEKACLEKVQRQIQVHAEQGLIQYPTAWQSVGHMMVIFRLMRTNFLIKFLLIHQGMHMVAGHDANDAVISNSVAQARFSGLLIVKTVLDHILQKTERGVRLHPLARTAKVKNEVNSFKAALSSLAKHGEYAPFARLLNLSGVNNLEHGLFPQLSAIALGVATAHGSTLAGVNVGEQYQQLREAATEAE

Chain of MARV NP (amino acids 19–370) (P27588 19-370 limits assumed): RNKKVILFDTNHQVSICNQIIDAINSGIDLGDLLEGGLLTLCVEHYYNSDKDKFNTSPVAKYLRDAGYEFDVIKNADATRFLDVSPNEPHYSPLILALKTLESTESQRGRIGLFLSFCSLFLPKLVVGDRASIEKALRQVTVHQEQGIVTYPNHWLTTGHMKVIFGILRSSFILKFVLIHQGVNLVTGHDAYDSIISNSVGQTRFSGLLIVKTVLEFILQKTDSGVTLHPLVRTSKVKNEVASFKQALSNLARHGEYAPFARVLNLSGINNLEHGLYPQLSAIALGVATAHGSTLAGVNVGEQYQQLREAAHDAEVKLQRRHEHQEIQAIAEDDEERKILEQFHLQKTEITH

| Compound | S/N AVE [1] | VIP [1] | S/N AVE [2] | VIP [2] | putative ligand in licorice crude extract screen [1] | putative ligand in licorice crude extract screen [2] |
| --- | --- | --- | --- | --- | --- | --- |
| O=c1cc(-c2ccc(O)cc2)oc2c([C@@H]3OC[C@H](O)[C@H](O)[C@H]3O)c(O)c([C@@H]3O[C@H](CO)[C@@H](O)[C@H](O)[C@H]3O)c(O)c12 [GC3, Schaftoside] | 1.62 | 1.60 | 1.11 | 0.60 | – | – |
| O=C(/C=C/c1ccc(O)cc1)c1ccc(O[C@@H]2O[C@H](CO)[C@@H](O)[C@H](O)[C@H]2O)cc1O [GC4, Neoisoliquiritin] | 1.72 | 1.31 | 1.58 | 1.18 | – | – |
| COc1ccc(-c2coc3cc(O)ccc3c2=O)cc1O [GC9, Calycosin] | 1.36 | 0.16 | 1.01 | 0.14 | – | – |
| COc1ccc(-c2coc3cc(O[C@@H]4O[C@H](CO)[C@@H](O)[C@H](O)[C@H]4O)ccc3c2=O)cc1 [GC5, Ononin] | 1.76 | 1.28 | 1.46 | 1.09 | – | – |
| O=C1C[C@@H](c2ccc(O)cc2)Oc2cc(O)ccc21 [GC8, Liquiritigenin] | 1.50 | 0.65 | 1.04 | 0.47 | – | – |
| C=CC(C)(C)c1cc(/C=C/C(=O)c2ccc(O)cc2)c(OC)cc1O [GC13, Licochalcone A] | 6.85 | 2.03 | 5.17 | 2.27 | met the aforementioned thresholds | met the aforementioned thresholds |
| glycyrrhetinic acid [GC7/10] | – | – | – | 1.44 | met the aforementioned thresholds | met the aforementioned thresholds |
| O=C(/C=C/c1ccc(O[C@@H]2O[C@H](CO)[C@@H](O)[C@H](O)[C@H]2O)cc1)c1ccc(O)cc1O [GC14, Isoliquiritin] | 1.73 | 2.12 | 1.22 | 1.29 | – | – |
| CC1(C)[C@@H](O[C@H]2O[C@H](C(=O)O)[C@@H](O)[C@H](O)[C@H]2O[C@@H]2O[C@H](C(=O)O)[C@@H](O)[C@H](O)[C@H]2O)CC[C@]2(C)[C@H]3C(=O)C=C4[C@@H]5C[C@@](C)(C(=O)O)CC[C@]5(C)CC[C@@]4(C)[C@]3(C)CC[C@@H]12 [GC6, Glycyrrhizin] | 0.96 | 1.39 | 1.15 | 5.23 | did not observe its direct binding | did not observe its direct binding |
